For one assay, the target named is T1, Tankyrase 1 (TNKS1) (Homo sapiens, UniProt O95271).
T1 construct: His6-TNKS1, MW=28.2 KDa (construct: 1088-1327, 1266M)
The assay is described as follows: μHTS-TNKS-IWR2 TR-FRET Binding Assay (Example 118), His6-TNKS1. How it is done:
(§1) μHTS-TNKS-IWR2 TR-FRET Binding Assay (10 μL/well in BD1536-well plate, a single point)
(§2) Reagents and Stock Solutions
(§3) Biotin-4-((1S,2R,6S,7R)-3,5-Dioxo-4-aza-tricyclo[5.2.1.0*2,6]dec-8-en-4-yl)-N-(4-methyl-quinolin-8-yl)-benzamide (Biotin-IWR2): 10 mM Biotin-IWR2 stock in DMSO, stored at −20° C.
(XAV939) in DMSO, stored at −20° C.
(§4) Assay buffer 1a (AB1a) for TNKS dilution: 50 mM Tris, pH 7.4, 100 mM sodium chloride solution, 1 mM magnesium chloride solution, 1 mM DL-dithiothreitol solution, 0.2 mg/mL bovine serum albumin solution, 0.025% NP-40.
(§5) Assay buffer 1b (AB1b) for Biotin-IWR2 dilution: 50 mM Tris, pH 7.4, 100 mM sodium chloride solution, 1 mM magnesium chloride solution, 1 mM DL-dithiothreitol solution, 0.2 mg/mL bovine serum albumin solution, 0.05% NP-40
(§6) Assay buffer 1c (AB1c) for compound dilution: 50 mM Tris, pH 7.4, 100 mM sodium chloride solution, 1 mM magnesium chloride solution, 1 mM DL-dithiothreitol solution, 0.2 mg/mL bovine serum albumin solution
(§7) Assay buffer 2 (AB2) for Eu/APC: 50 mM Tris, pH 7.4, 100 mM sodium chloride solution, 1 mM magnesium chloride solution, 0.2 mg/mL bovine serum albumin solution
(§8) Reagent Stock Solution Preparation
(§9) Prepare BLANK well stock solution: 5% DMSO/AB1b buffer
(§10) Prepare TNKS 1 stock solution (5× stock): 300 nM TNKS in AB1a buffer. (Alternatively, use TNKS2 or PARP1 stock solutions.)
Transfer 3 μL/well of above solution (solution 1,2,3) to an empty assay plate (BD1536-well plate) as follows: • TOTAL and cpd wells: Solution 1 (Biotin-IWR2): • BLANK wells: Solution 2 (No Biotin-IWR2): • POSITIVE CONTROL wells: Solution 3 (Biotin-IWR2+XAV939)
(§11) Transfer 3 μL/well of the above diluted compound solutions or compound dilution buffer to the above assay plate. Add 2 μL/well of 300 nM TNKS stock solution (4) to every well in the above assay plate. Centrifuge the assay plate at 2100 rpm for 2 min. Incubate the assay plate at 26° C. for 30 minutes. Add 2 μL/well 3.5 nMEu/50 nM APC solution (5) to every well in the above assay plate. Centrifuge the assay plate at 2100 rpm for 2 min. Incubate the assay plate at 26° C. for 60 min.
A general note: Time-resolved FRET reads energy transfer from a long-lived donor to a nearby acceptor.

The next assay concerns the target T2, tankyrase 2 (TNKS2) (Homo sapiens, UniProt Q9H2K2).
T2 construct: His6-tankyrase 2 (construct: 934-1166) (His6-TNKS2)
The assay is described as follows: μHTS-TNKS-IWR2 TR-FRET Binding Assay (Example 118), His6-TNKS2 substituted. As to conditions: procedure in Example 118 with His6-TNKS2. How it is done: as §1, §2
Tankyrase 1 (TNKS1): 184.3 μM=5.2 mg/mL His6-TNKS1, MW=28.2 KDa (construct: 1088-1327, 1266M) in 20 mM Tris pH 8, 150 mM NaCl, 10% glycerol, and 0.5 mM TCEP. Alternatively, His6-tankyrase 2 (construct: 934-1166) (His6-TNKS2) or His6-PARP1 (full length) can be substituted for His6-TNKS 1.
as §3
Positive control: 10 mM 2-(4-Trifluoromethyl-phenyl)-3,5,7,8-tetrahydro-thiopyrano[4,3-d]pyrimidin-4-one (XAV939) in DMSO, stored at −20° C.
APC-anti-His Ab: 8.50 μM SL-APC, 8.26 μM anti-6His antibody-SureLight APC (Columia Bioscience, Catalog Number D3-1711, Lot Number N01010-AAH04)
Assay plate: BD 1536-well, clear/black plate (Catalog Number 353255)
as §4, §5, §6, §7, §8
Prepare Biotinylated IWR2 stock solution (3.33× stock) for TOTL and compound wells: 200 nM Biotin-IWR2 in 5% DMSO/AB1b buffer
as §9
Prepare POSITIVE CONTROL well stock solution (3.33× stock): 200 nM XAV939 in 200 nM Biotin-IWR2/5% DMSO/AB1b buffer
as §10
Prepare Eu/APC stock solution (5× stock): 3.5 nM Eu-SA/50 nM APC-His6Ab in AB2 buffer.
Add 25 μL/well 1.5% DMSO/AB1c buffer in each compound well to the compound concentration at 74 μM in 8.8% DMSO/AB1c buffer or in the 2 μL DMSO CONTROL wells (BLANK, TOTAL and POSITIVE wells) in the compound plate. Transfer 3 μL/well of above solution (solution 1,2,3) to an empty assay plate (BD1536-well plate) as follows: • TOTAL and cpd wells: Solution 1 (Biotin-IWR2): • BLANK wells: Solution 2 (No Biotin-IWR2): • POSITIVE CONTROL wells: Solution 3 (Biotin-IWR2+XAV939)
as §11, with “60 min. Read the assay plate immediately at excitation wavelength of 330 nm and emission wavelength of […] in time resolved fluorescence mode.” for “60 min.”
XAV939 (+ve control): 60 nM at ˜70% Inhibition
General Library compounds: 22.23 μM in 4% DMSO

From patent US20130345215A1, “PYRAZOLOPYRIMIDONE AND PYRAZOLOPYRIDONE INHIBITORS OF TANKYRASE” (Genentech, Inc., priority 2012, published 2013) come the findings set out here.

Like-named read-outs stand apart in the source and are kept apart here.

T1 sequence (O95271 1088-1327): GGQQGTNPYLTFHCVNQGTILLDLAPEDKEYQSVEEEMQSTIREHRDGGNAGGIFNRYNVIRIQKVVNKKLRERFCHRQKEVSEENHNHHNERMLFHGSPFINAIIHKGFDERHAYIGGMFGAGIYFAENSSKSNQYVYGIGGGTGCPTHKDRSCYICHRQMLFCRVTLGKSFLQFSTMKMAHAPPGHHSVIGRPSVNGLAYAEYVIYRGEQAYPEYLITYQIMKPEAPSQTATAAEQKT
T2 sequence (Q9H2K2 934-1166): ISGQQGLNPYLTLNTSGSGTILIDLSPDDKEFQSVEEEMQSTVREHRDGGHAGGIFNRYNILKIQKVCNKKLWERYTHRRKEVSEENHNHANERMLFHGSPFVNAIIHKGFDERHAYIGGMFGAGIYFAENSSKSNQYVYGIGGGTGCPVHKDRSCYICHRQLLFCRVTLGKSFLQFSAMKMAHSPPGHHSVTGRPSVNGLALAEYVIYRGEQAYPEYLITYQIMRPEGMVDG

In the case of `Cn1ncc2c(=O)[nH]c(N3CCN(c4ccc(F)cc4S(C)(=O)=O)CC3)cc21` [Compound I-25, 6-[4-(4-fluoro-2-methylsulfonyl-phenyl)piperazin-1-yl]-1-methyl-5H-pyrazolo[4 3-c]pyridin-4-one], the IC50 (usually the concentration that gives 50% inhibition) at Tankyrase 1 (TNKS1) is 44 nM; on tankyrase 2 (TNKS2), 45.1 nM.
The corresponding values for `Cn1ncc2c(=O)[nH]c(N3CCN(c4ccc(C#N)cc4F)CC3)nc21` [Compound I-28, 3-fluoro-4-[4-(1-methyl-4-oxo-5H-pyrazolo[3 4-d]pyrimidin-6-yl)piperazin-1-yl]benzonitrile] are 51 nM and 76.5 nM.
The corresponding values for `Cn1ncc2c(=O)[nH]c(N3CCC(C#N)(c4ccccn4)CC3)nc21` [Compound I-52, 1-(1-methyl-4-oxo-5H-pyrazolo[3 4-d]pyrimidin-6-yl)-4-(2-pyridyl)piperidine-4-carbonitrile] are 47 nM and 54.5 nM.
As to `Cn1ncc2c(=O)[nH]c(-c3ccc(C(F)(F)F)cc3)cc21` [Compound I-13, 1-methyl-6-[4-(trifluoromethyl)phenyl]-5H-pyrazolo[4 3-c]pyridin-4-one], the IC50 at Tankyrase 1 (TNKS1) was 32 nM; at tankyrase 2 (TNKS2), 32.5 nM.
The corresponding values for `Cn1ncc2c(=O)[nH]c(-c3ccc(C(F)(F)F)cn3)nc21` [Compound I-50, 1-methyl-6-[5-(trifluoromethyl)-2-pyridyl]-5H-pyrazolo[3 4-d]pyrimidin-4-one] are 286 nM and 325 nM.
With `Cn1ncc2c(=O)[nH]c(N3CCN(c4ccccc4C#N)CC3)nc21` [Compound I-15, 2-[4-(1-methyl-4-oxo-5H-pyrazolo[3 4-d]pyrimidin-6-yl)piperazin-1-yl]benzonitrile], the half-inhibitory concentration (IC50) amounted to 74 nM at Tankyrase 1 (TNKS1) and 95.2 nM at tankyrase 2 (TNKS2).
The like results for `Cn1ncc2c(=O)[nH]c(N3CCC(C#N)(c4ccc(F)cc4)CC3)nc21` [Compound I-33, 4-(4-fluorophenyl)-1-(1-methyl-4-oxo-5H-pyrazolo[3 4-d]pyrimidin-6-yl)piperidine-4-carbonitrile] were, in that order, 32 nM and 21.7 nM.
The corresponding values for `O=c1[nH]c(N2CCN(c3ccccc3F)CC2)nc2[nH]ncc12` [Compound I-10, 6-[4-(2-fluorophenyl)piperazin-1-yl]-1 5-dihydropyrazolo[3 4-d]pyrimidin-4-one] are 147 nM and 376 nM.
The like results for `COCCOc1cc(F)cc(N2CCN(c3nc4c(cnn4C)c(=O)[nH]3)CC2)c1` [Compound I-55, 6-[4-[3-fluoro-5-(2-methoxyethoxy)phenyl]piperazin-1-yl]-1-methyl-5H-pyrazolo[3 4-d]pyrimidin-4-one] were, in that order, 114 nM and 147 nM.
In the case of “6-[4-(3 5-dichloro-4- pyridyl)piperazin-1-yl]-1- methyl-5H-pyrazolo[4 3- c]pyridin-4-one [Compound I-47]”, the IC50 at Tankyrase 1 (TNKS1) (Compounds I-1 to I-58, procedure in Example 118 (TR-FRET, Biotin-IWR2 60 nM, TNKS 60 nM), read-out: TNKS1 (IC50)) amounted to 26 nM; at tankyrase 2 (TNKS2) it was 29.1 nM.
`O=c1[nH]c(N2CCC(c3ccc(F)cc3)CC2)cc2[nH]ncc12` [Compound I-11, 6-[4-(4-fluorophenyl)-1-piperidyl]-1 5-dihydropyrazolo[4 3-c]pyridin-4-one]: the figures for the IC50 at Tankyrase 1 (TNKS1) and at tankyrase 2 (TNKS2) were 108 nM and 159 nM, respectively.
The corresponding values for `Cn1ncc2c(=O)[nH]c(N3CCC(c4ccc(F)cc4)CC3)nc21` [Compound I-5, 6-[4-(4-fluorophenyl)-1-piperidyl]-1-methyl-5H-pyrazolo[3 4-d]pyrimidin-4-one] are 31 nM and 37.6 nM.
The like results for `Cn1ncc2c(=O)[nH]c(-c3ccc(C(F)(F)F)cc3)nc21` [Compound I-4, 1-methyl-6-[4-(trifluoromethyl)phenyl]-5H-pyrazolo[3 4-d]pyrimidin-4-one] were, in that order, 25 nM and 34.5 nM.
The like results for `Cn1ncc2c(=O)[nH]c(N3CCN(c4nccs4)CC3)nc21` [Compound I-38, 1-methyl-6-(4-thiazol-2-ylpiperazin-1-yl)-5H-pyrazolo[3 4-d]pyrimidin-4-one] were, in that order, 504 nM and 598 nM.
In the case of `Cn1ncc2c(=O)[nH]c(N3CCN(CC4CCCO4)CC3)nc21` (stereo not drawn) [Compound I-32, 1-methyl-6-[4-(tetrahydrofuran-2-ylmethyl)piperazin-1-yl]-5H-pyrazolo[3 4-d]pyrimidin-4-one], the IC50 on Tankyrase 1 (TNKS1) was determined as 155 nM; on tankyrase 2 (TNKS2) it was 178 nM.
The corresponding values for `Cn1ncc2c(=O)[nH]c(N3CCN(c4ccc(C(C)(C)O)cc4F)CC3)nc21` [Compound I-44, 6-[4-[2-fluoro-4-(1-hydroxy-1-methyl-ethyl)phenyl]piperazin-1-yl]-1-methyl-5H-pyrazolo[3 4-d]pyrimidin-4-one] are 34 nM and 95.3 nM.
As to `Cn1ncc2c(=O)[nH]c(N3CCC(c4ccc(C(F)(F)F)cc4)CC3)nc21` [Compound I-6, 1-methyl-6-[4-[4-(trifluoromethyl)phenyl]-1-piperidyl]-5H-pyrazolo[3 4-d]pyrimidin-4-one], the IC50 amounted to 66 nM on Tankyrase 1 (TNKS1) and 68.3 nM on tankyrase 2 (TNKS2).
The corresponding values for `Cn1ncc2c(=O)[nH]c(N3CCC(O)(c4ccccn4)CC3)nc21` [Compound I-35, 6-[4-hydroxy-4-(2-pyridyl)-1-piperidyl)-1-methyl-5H-pyrazolo[3 4-d]pyrimidin-1-one] are 69 nM and 94.5 nM.
For the molecule `Cn1ncc2c(=O)[nH]c(-c3ccc(C(F)(F)F)nc3)cc21` [Compound I-29, 1-methyl-6-[6-(trifluoromethyl)-3-pyridyl]-5H-pyrazolo[4 3-c]pyridin-4-one], the results for the IC50 on Tankyrase 1 (TNKS1) and at tankyrase 2 (TNKS2) were 151 nM and 104 nM, respectively.
The corresponding values for `Cn1ncc2c(=O)[nH]c(N3CCN(c4ccccc4C(F)(F)F)CC3)nc21` [Compound I-19, 1-methyl-6-[4-[2-(trifluoromethyl)phenyl]piperazin-1-yl]-5H-pyrazolo[3 4-d]pyrimidin-4-one] are 27 nM and 32.6 nM.
On to `Cn1ncc2c(=O)[nH]c(N3CCN(c4c(F)cc(C#N)cc4F)CC3)nc21` [Compound I-56, 3 5-difluoro-4-[4-(1-methyl-4-oxo-5H-pyrazolo[3 4-d]pyrimidin-6-yl)piperazin-1-yl]benzonitrile], for which the IC50 at Tankyrase 1 (TNKS1) turned out to be 55 nM; on tankyrase 2 (TNKS2), 63.2 nM.
